Data reported in article PMC9123836 (Bioorganic & Medicinal Chemistry, 2022).

What was measured:
[1] = test system: LO2 cells; test: cytotoxicity against normal cells; type: cell-based, human; details: at the 100 µM level; MTT, 72 h
[2] = target: T1, α-glucosidase (Saccharomyces cerevisiae, UniProt P53341); test: enzyme kinetic study; type: biochemical; details: Lineweaver-Burk plot
[3] = test system: SARS-CoV-2 spike pseudovirus; test: organism not typed; type: cell-based
[4] = target: T1, α-glucosidase; test: in vitro α-glucosidase inhibitory activity; type: biochemical; details: mean ± SD (n = 3); test concentration not given

T1 sequence (P53341 whole entry): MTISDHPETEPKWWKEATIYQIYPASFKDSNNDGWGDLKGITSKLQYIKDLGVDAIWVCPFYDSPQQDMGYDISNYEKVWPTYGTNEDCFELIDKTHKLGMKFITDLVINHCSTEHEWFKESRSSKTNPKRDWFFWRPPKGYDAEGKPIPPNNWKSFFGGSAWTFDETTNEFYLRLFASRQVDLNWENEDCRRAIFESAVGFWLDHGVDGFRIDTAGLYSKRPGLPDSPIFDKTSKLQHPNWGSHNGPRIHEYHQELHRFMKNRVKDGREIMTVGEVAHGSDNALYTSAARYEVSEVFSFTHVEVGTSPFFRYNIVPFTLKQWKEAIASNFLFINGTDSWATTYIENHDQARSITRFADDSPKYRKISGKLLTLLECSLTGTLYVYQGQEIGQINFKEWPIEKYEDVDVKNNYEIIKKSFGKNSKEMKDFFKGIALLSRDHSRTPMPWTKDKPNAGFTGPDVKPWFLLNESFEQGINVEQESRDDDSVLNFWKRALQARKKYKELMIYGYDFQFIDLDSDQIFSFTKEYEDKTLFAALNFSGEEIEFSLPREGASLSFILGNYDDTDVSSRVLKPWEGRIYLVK

SMILES: C=CCc1cc(-c2cc(CC=C)c3oc(SCc4nnc(-c5cccc(C)c5)o4)nc3c2)c2oc(SCc3nnc(-c4cccc(C)c4)o3)nc2c1 [Compound 7l]
- survival rates of LO2 cells [1]: above 80%
- inhibition mode towards α-glucosidase [2]: noncompetitive α-glucosidase inhibitor

SMILES: C=CCc1cc(CSc2nnc(-c3ccccc3)o2)c(O)c(-c2ccc(O)c(CC=C)c2)c1 [Compound 9a]
- survival rates of LO2 cells [1]: above 80%
- inhibition of SARS-CoV-2 pseudovirus entry ([3]; at 100 μM): almost completely inhibited

SMILES: C=CCc1cc(CSc2nnc(-c3cccnc3)o2)c(O)c(-c2ccc(O)c(CC=C)c2)c1 [Compound 9r]
- survival rates of LO2 cells [1]: above 80%

SMILES: Cc1cc(-c2ccc(/N=N/c3ccc4c(S(=O)(=O)O)cc(S(=O)(=O)O)c(N)c4c3O)c(C)c2)ccc1/N=N/c1ccc2c(S(=O)(=O)O)cc(S(=O)(=O)O)c(N)c2c1O [Evans blue, reference compound]
- IC50 ([3]; HEK293, read-out: IC50 (µM) against pseudovirus entry): 22 ± 1.98 µM

SMILES: C[C@H]1O[C@H](O[C@H]2[C@H](O)[C@@H](O)[C@@H](O[C@H]3[C@H](O)[C@@H](O)C(O)O[C@@H]3CO)O[C@@H]2CO)[C@H](O)[C@@H](O)[C@@H]1N[C@H]1C=C(CO)[C@@H](O)[C@H](O)[C@H]1O (stereo partly shown) [acarbose]
- Inhibition rate (%) [4]: 96.4 ± 0.5%
